In ChEMBL document CHEMBL4507317, “Data for DCP probe BAY-899” (2021):

Key:
[1] = tested on: Tyrosine-protein kinase ABL1 (Homo sapiens), P00519 [F317L]; settings: Compound concentration 1000.0 nM
[2] = target: RAC-beta serine/threonine-protein kinase (Homo sapiens) (UniProt P31751); settings: Compound concentration 1000.0 nM
[3] = tested on: ALK tyrosine kinase receptor (Homo sapiens), Q9UM73 [L1196M]; settings: Compound concentration 1000.0 nM
[4] = target: Aurora kinase A (Homo sapiens) (UniProt O14965); settings: Compound concentration 1000.0 nM
Aurora kinase A (Homo sapiens), sequence (O14965 whole entry): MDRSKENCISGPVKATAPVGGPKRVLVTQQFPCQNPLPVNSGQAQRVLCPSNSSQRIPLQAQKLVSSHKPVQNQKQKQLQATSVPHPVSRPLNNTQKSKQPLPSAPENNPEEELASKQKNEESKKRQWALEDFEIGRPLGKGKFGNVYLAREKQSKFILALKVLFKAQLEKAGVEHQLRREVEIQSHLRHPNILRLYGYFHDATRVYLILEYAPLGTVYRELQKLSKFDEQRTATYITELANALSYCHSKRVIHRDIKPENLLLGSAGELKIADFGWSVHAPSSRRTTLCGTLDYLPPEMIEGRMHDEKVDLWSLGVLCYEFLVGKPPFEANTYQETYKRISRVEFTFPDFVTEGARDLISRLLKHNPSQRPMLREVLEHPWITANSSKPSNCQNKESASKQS

[5] = target: BMP-2-inducible protein kinase (Homo sapiens) (UniProt Q9NSY1); settings: Compound concentration 1000.0 nM
[6] = target: Tyrosine-protein kinase Blk (Homo sapiens) (UniProt P51451); settings: Compound concentration 1000.0 nM
[7] = target: Bone morphogenetic protein receptor type-2 (Homo sapiens) (UniProt Q13873); settings: Compound concentration 1000.0 nM
Bone morphogenetic protein receptor type-2 (Homo sapiens), sequence (Q13873 whole entry): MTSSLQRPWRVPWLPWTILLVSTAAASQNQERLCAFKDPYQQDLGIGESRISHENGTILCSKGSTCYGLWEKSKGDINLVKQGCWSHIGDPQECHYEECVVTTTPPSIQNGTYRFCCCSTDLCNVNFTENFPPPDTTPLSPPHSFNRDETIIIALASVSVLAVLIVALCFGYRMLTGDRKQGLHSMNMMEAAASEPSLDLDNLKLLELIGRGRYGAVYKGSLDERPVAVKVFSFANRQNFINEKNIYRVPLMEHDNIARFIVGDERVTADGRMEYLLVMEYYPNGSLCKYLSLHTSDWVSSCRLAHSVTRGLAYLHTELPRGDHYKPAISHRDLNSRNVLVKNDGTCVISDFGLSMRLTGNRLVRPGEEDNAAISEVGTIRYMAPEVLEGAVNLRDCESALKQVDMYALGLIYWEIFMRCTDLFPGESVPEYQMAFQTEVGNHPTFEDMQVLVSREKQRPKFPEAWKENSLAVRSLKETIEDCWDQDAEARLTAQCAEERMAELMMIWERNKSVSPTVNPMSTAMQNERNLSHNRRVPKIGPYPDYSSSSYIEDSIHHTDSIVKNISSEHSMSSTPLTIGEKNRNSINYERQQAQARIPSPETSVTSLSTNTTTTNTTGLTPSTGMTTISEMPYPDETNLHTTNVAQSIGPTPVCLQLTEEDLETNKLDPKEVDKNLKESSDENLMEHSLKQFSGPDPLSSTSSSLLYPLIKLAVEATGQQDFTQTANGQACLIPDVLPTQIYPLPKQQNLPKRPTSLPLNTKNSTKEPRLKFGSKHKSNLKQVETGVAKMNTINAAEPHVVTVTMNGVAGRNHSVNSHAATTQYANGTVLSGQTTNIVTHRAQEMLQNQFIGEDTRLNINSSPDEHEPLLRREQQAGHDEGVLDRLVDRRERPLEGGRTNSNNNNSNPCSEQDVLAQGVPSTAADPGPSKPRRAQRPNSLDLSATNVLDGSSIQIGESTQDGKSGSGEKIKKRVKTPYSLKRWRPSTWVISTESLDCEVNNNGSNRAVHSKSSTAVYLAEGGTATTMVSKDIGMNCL

[8] = target: Calcium/calmodulin-dependent protein kinase type 1 (Homo sapiens) (UniProt Q14012); settings: Compound concentration 1000.0 nM
Calcium/calmodulin-dependent protein kinase type 1 (Homo sapiens), sequence (Q14012 whole entry, looked up): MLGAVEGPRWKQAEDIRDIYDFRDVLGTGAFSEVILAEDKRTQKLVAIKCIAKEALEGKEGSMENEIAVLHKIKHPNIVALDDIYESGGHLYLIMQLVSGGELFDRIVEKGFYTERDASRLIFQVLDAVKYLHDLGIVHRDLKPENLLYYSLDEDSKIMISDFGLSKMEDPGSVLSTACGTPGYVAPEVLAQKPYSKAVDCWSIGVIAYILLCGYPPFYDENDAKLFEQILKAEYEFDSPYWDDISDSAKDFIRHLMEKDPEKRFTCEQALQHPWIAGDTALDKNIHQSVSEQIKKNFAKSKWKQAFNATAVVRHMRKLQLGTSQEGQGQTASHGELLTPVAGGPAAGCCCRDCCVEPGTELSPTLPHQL

[9] = target: Cyclin-dependent kinase 13 (Homo sapiens) (UniProt Q14004); settings: Compound concentration 1000.0 nM
[10] = target: Cyclin-dependent kinase-like 1 (Homo sapiens) (UniProt Q00532); settings: Compound concentration 1000.0 nM
Cyclin-dependent kinase-like 1 (Homo sapiens), sequence (Q00532 whole entry, canonical isoform): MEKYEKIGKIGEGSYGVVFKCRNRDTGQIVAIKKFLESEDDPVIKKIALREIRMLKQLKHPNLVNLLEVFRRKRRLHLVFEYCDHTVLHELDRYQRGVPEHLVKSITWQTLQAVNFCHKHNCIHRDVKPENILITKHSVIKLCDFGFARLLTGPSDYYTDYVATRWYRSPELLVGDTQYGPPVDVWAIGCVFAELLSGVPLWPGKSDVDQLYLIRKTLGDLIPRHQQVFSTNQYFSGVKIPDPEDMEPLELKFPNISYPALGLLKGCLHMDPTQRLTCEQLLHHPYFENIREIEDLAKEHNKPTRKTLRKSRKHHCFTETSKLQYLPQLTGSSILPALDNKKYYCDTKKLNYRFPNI

[11] = target: Casein kinase I isoform gamma-2 (Homo sapiens) (UniProt P78368); settings: Compound concentration 1000.0 nM
Casein kinase I isoform gamma-2 (Homo sapiens), sequence (P78368 whole entry, looked up, canonical isoform): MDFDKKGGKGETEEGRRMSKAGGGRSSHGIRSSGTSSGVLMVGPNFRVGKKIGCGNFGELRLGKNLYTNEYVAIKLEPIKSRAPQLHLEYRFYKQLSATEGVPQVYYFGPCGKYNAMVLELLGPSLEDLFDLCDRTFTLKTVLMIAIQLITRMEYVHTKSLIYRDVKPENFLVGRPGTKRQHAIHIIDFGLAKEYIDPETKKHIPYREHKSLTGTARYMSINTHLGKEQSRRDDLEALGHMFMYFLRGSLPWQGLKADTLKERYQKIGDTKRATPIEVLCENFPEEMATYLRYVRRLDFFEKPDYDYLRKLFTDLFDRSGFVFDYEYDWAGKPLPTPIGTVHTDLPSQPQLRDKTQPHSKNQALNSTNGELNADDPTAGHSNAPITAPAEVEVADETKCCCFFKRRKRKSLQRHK

[12] = tested on: Epidermal growth factor receptor (Homo sapiens), P00533 [UNDEFINED MUTATION]; settings: Compound concentration 1000.0 nM
[13] = target: Ephrin type-A receptor 5 (Homo sapiens) (UniProt P54756); settings: Compound concentration 1000.0 nM
[14] = target: Ephrin type-B receptor 6 (Homo sapiens) (UniProt O15197); settings: Compound concentration 1000.0 nM
[15] = target: Mitogen-activated protein kinase 7 (Homo sapiens) (UniProt Q13164); settings: Compound concentration 1000.0 nM
[16] = target: Fibroblast growth factor receptor 2 (Homo sapiens) (UniProt P21802); settings: Compound concentration 1000.0 nM
[17] = target: Insulin receptor (Homo sapiens) (UniProt P06213); settings: Compound concentration 1000.0 nM
[18] = tested on: Mast/stem cell growth factor receptor Kit (Homo sapiens), P10721 [A829P]; settings: Compound concentration 1000.0 nM
[19] = tested on: Mast/stem cell growth factor receptor Kit (Homo sapiens), P10721 [V559D,V654A]; settings: Compound concentration 1000.0 nM
[20] = target: Serine/threonine-protein kinase STK11 (Homo sapiens) (UniProt Q15831); settings: Compound concentration 1000.0 nM
Serine/threonine-protein kinase STK11 (Homo sapiens), sequence (Q15831 whole entry): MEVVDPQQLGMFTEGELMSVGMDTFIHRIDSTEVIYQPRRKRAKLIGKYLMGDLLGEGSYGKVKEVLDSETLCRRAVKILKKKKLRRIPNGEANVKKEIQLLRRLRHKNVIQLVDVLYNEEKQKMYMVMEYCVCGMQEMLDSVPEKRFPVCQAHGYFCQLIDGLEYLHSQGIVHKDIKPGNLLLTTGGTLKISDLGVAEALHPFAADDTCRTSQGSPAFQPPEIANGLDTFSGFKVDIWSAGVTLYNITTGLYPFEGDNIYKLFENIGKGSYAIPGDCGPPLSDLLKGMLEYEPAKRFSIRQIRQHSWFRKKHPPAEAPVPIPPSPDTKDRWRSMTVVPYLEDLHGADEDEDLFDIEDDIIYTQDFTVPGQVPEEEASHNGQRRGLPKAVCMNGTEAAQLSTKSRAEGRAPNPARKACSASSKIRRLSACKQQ

[21] = target: Mitogen-activated protein kinase kinase kinase 4 (Homo sapiens) (UniProt Q9Y6R4); settings: Compound concentration 1000.0 nM
[22] = target: Serine/threonine-protein kinase MARK1 (Homo sapiens) (UniProt Q9P0L2); settings: Compound concentration 1000.0 nM
[23] = target: Hepatocyte growth factor receptor (Homo sapiens) (UniProt P08581); settings: Compound concentration 1000.0 nM
[24] = target: Myosin light chain kinase (Homo sapiens) (UniProt Q32MK0); settings: Compound concentration 1000.0 nM
[25] = target: Myosin-IIIa (Homo sapiens) (UniProt Q8NEV4); settings: Compound concentration 1000.0 nM
[26] = target: Mitogen-activated protein kinase kinase kinase 14 (Homo sapiens) (UniProt Q99558); settings: Compound concentration 1000.0 nM
[27] = target: Serine/threonine-protein kinase PAK 1 (Homo sapiens) (UniProt Q13153); settings: Compound concentration 1000.0 nM
[28] = target: Cyclin-dependent kinase 15 (Homo sapiens) (UniProt Q96Q40); settings: Compound concentration 1000.0 nM
[29] = target: Serine/threonine-protein kinase PLK4 (Homo sapiens) (UniProt O00444); settings: Compound concentration 1000.0 nM
[30] = target: Serine/threonine-protein kinase D3 (Homo sapiens) (UniProt O94806); settings: Compound concentration 1000.0 nM
[31] = target: cAMP-dependent protein kinase catalytic subunit PRKX (Homo sapiens) (UniProt P51817); settings: Compound concentration 1000.0 nM
[32] = target: Proto-oncogene tyrosine-protein kinase receptor Ret (Homo sapiens) (UniProt P07949); settings: Compound concentration 1000.0 nM
[33] = target: Rho-associated protein kinase 1 (Homo sapiens) (UniProt Q13464); settings: Compound concentration 1000.0 nM
[34] = target: Serine/threonine-protein kinase Sgk1 (Homo sapiens) (UniProt O00141); settings: Compound concentration 1000.0 nM
[35] = target: Proto-oncogene tyrosine-protein kinase Src (Homo sapiens) (UniProt P12931); settings: Compound concentration 1000.0 nM
[36] = target: STE20/SPS1-related proline-alanine-rich protein kinase (Homo sapiens) (UniProt Q9UEW8); settings: Compound concentration 1000.0 nM
[37] = target: Tyrosine-protein kinase Tec (Homo sapiens) (UniProt P42680); settings: Compound concentration 1000.0 nM
[38] = target: Angiopoietin-1 receptor (Homo sapiens) (UniProt Q02763); settings: Compound concentration 1000.0 nM
[39] = target: High affinity nerve growth factor receptor (Homo sapiens) (UniProt P04629); settings: Compound concentration 1000.0 nM
[40] = target: Dual specificity protein kinase TTK (Homo sapiens) (UniProt P33981); settings: Compound concentration 1000.0 nM
[41] = target: Serine/threonine-protein kinase ULK2 (Homo sapiens) (UniProt Q8IYT8); settings: Compound concentration 1000.0 nM
[42] = target: Phosphatidylinositol 3-kinase catalytic subunit type 3 (Homo sapiens) (UniProt Q8NEB9); settings: Compound concentration 1000.0 nM
[43] = target: Wee1-like protein kinase 2 (Homo sapiens) (UniProt P0C1S8); settings: Compound concentration 1000.0 nM
Wee1-like protein kinase 2 (Homo sapiens), sequence (P0C1S8 whole entry, looked up): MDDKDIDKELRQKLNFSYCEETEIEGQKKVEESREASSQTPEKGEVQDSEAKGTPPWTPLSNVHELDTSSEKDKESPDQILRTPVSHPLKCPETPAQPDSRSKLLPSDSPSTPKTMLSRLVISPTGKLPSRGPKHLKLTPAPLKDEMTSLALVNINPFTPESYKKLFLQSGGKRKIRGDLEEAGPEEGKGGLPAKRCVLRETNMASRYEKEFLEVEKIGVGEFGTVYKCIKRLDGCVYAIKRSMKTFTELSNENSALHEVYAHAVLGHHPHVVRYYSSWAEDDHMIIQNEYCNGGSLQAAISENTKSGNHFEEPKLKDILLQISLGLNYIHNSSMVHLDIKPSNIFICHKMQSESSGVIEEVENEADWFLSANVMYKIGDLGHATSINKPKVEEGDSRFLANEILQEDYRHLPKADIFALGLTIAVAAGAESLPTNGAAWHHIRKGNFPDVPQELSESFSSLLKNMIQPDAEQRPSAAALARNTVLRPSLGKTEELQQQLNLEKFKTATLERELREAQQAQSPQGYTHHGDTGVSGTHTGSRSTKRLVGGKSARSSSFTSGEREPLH

[44] = target: Mitogen-activated protein kinase kinase kinase 19 (Homo sapiens) (UniProt Q56UN5); settings: Compound concentration 1000.0 nM
Mitogen-activated protein kinase kinase kinase 19 (Homo sapiens), sequence (Q56UN5 whole entry): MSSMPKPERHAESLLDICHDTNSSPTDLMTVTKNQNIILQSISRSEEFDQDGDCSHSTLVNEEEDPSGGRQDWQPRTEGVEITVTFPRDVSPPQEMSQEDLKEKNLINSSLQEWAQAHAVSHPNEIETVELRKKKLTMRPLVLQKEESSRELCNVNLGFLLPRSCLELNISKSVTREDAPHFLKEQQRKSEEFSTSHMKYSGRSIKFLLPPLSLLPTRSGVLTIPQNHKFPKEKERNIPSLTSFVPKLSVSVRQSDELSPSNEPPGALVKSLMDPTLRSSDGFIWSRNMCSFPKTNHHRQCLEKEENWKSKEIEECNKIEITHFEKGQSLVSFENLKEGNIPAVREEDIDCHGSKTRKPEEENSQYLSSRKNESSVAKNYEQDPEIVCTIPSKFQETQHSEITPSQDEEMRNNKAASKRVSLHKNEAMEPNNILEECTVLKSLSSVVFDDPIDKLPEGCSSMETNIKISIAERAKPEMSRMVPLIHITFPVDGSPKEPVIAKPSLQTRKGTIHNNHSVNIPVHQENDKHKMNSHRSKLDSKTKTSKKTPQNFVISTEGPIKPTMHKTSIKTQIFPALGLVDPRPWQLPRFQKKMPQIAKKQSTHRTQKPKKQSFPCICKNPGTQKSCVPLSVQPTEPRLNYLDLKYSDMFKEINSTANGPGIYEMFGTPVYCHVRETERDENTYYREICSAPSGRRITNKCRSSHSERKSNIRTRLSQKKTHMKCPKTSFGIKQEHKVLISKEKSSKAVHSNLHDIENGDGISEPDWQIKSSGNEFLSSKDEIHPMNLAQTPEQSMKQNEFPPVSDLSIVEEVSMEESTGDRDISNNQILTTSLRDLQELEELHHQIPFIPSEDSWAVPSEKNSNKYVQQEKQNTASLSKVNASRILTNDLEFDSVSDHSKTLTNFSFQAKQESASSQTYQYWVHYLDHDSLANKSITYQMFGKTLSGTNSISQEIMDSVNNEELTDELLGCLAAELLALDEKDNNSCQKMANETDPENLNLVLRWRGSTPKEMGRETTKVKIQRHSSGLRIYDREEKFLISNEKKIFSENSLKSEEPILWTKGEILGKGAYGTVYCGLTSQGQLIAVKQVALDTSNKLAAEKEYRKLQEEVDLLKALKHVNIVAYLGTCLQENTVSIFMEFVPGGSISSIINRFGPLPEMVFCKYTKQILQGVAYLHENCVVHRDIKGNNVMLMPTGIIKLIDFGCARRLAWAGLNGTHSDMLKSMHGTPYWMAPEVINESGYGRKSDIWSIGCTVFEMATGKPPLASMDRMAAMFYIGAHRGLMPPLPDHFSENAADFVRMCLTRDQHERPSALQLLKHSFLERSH

[45] = target: 5-hydroxytryptamine receptor 1B (Homo sapiens) (UniProt P28222); settings: Compound concentration 10.0 uM
[46] = target: Sigma non-opioid intracellular receptor 1 (Homo sapiens, UniProt Q99720); settings: Compound concentration 10.0 uM

## O=C(Nc1ccc(Oc2ccc(F)cc2)cc1)N1CCc2ncccc2[C@H]1c1ccc(F)cc1 [BAY-897]
[1]
  residual activity: 70%
[2]
  residual activity: 96%
[3]
  residual activity: 100%
[4]
  residual activity: 100%
[5]
  residual activity: 94%
[6]
  residual activity: 90%
[7]
  residual activity: 96%
[8]
  residual activity: 70%
[9]
  residual activity: 100%
[10]
  residual activity: 97%
[11]
  residual activity: 98%
[12]
  residual activity: 74%
[13]
  residual activity: 100%
[14]
  residual activity: 70%
[15]
  residual activity: 96%
[16]
  residual activity: 93%
[17]
  residual activity: 86%
[18]
  residual activity: 100%
[19]
  residual activity: 90%
[20]
  residual activity: 61%
[21]
  residual activity: 100%
[22]
  residual activity: 81%
[23]
  residual activity: 100%
[24]
  residual activity: 80%
[25]
  residual activity: 100%
[26]
  residual activity: 61%
[27]
  residual activity: 82%
[28]
  residual activity: 86%
[29]
  residual activity: 94%
[30]
  residual activity: 98%
[31]
  residual activity: 88%
[32]
  residual activity: 94%
[33]
  residual activity: 100%
[34]
  residual activity: 95%
[35]
  residual activity: 91%
[36]
  residual activity: 82%
[37]
  residual activity: 86%
[38]
  residual activity: 100%
[39]
  residual activity: 85%
[40]
  residual activity: 94%
[41]
  residual activity: 98%
[42]
  residual activity: 92%
[43]
  residual activity: 100%
[44]
  residual activity: 88%
[45]
  inhibition: 18.8%
[46]
  inhibition: 73.4%

## O=C(Nc1cnc(Oc2ccc(F)cc2)nc1)N1CCc2ncccc2[C@@H]1c1ccc(F)cc1 [BAY-899]
[1]
  residual activity: 81%
[2]
  residual activity: 100%
[3]
  residual activity: 100%
[4]
  residual activity: 100%
[5]
  residual activity: 93%
[6]
  residual activity: 80%
[7]
  residual activity: 88%
[8]
  residual activity: 73%
[9]
  residual activity: 100%
[10]
  residual activity: 100%
[11]
  residual activity: 96%
[12]
  residual activity: 100%
[13]
  residual activity: 100%
[14]
  residual activity: 100%
[15]
  residual activity: 96%
[16]
  residual activity: 98%
[17]
  residual activity: 81%
[18]
  residual activity: 100%
[19]
  residual activity: 84%
[20]
  residual activity: 75%
[21]
  residual activity: 89%
[22]
  residual activity: 71%
[23]
  residual activity: 100%
[24]
  residual activity: 89%
[25]
  residual activity: 100%
[26]
  residual activity: 100%
[27]
  residual activity: 71%
[28]
  residual activity: 93%
[29]
  residual activity: 100%
[30]
  residual activity: 84%
[31]
  residual activity: 93%
[32]
  residual activity: 94%
[33]
  residual activity: 100%
[34]
  residual activity: 75%
[35]
  residual activity: 93%
[36]
  residual activity: 77%
[37]
  residual activity: 89%
[38]
  residual activity: 93%
[39]
  residual activity: 100%
[40]
  residual activity: 86%
[41]
  residual activity: 93%
[42]
  residual activity: 100%
[43]
  residual activity: 95%
[44]
  residual activity: 81%
[45]
  inhibition: 36.4%
[46]
  inhibition: 64.4%
